# Laboratory results reported in US11352400B2, “PI3K gamma inhibitor peptide for treatment of respiratory system diseases” (Kither Biotech S.r.I., priority 2014, dated 2022).
# Experiments:
# [1] = tested on: airway hyperreactivity induced by the muscarinic agonist methacholine in healthy mice; test: Airway hyperreactivity to methacholine in healthy mice; format: in vivo, BALB/C mice; settings: peptide 1.5 μg or equimolar P1, increasing doses of methacholine
# [2] = tested on: PDE4D; test: Phosphodiesterase activity in anti-PDE4D immunoprecipitates from treated tracheal smooth muscle cells; format: cell-based, mouse; settings: tracheal smooth muscle cells of wild-type mice (PI3Kγ+/+); 50 μM, 30 minutes
# Protocol: (§1) For protein extraction from murine tracheal smooth muscle cells (mTSMCs) and human bronchial smooth muscle cells (hBSMCs), cells were treated with the indicated drugs/peptides and immediately lysed in cold lysis buffer containing 120 mmol/L NaCl, 50 mmol/L Tris-HCl (pH 8.0), complete protease inhibitors (Roche Applied Science, Indianapolis, Ind.) and phosphatase inhibitors (50 mmol/L sodium fluoride, 1 mmol/L sodium orthovanadate and 10 mmol/L sodium pyrophosphate). After 30 min of incubation on ice, lysates were centrifuged at 13000 rpm for 10 min at 4° C. and used for either Western blotting or subjected to immunoprecipitation and measurements of phosphodiesterase activity. […]
# (§2) Phosphodiesterase activity in immunoprecipitates was measured according to the two-step method of Thompson and Appleman, as previously described (2), with minor modifications. […] The amount of radiolabeled adenosine in the supernatant was quantified by scintillation counting (Ultima Gold liquid scintillation from Perkin Elmer, Waltham, Mass.).
# (§3) Murine tracheal smooth muscle cells were cultured from explants of trachea using previously described methods with modifications. […] More than 90% of these cells were smooth muscle cells, as determined by immunofluorescence performed with an antibody specific for smooth muscle actin. […]
# [3] = tested on: PDE4B; test: Phosphodiesterase activity in anti-PDE4B immunoprecipitates from treated tracheal smooth muscle cells; format: cell-based, mouse; settings: tracheal smooth muscle cells of wild-type mice (PI3Kγ+/+); 50 μM, 30 minutes
# Protocol: as §1, §2, §3
# [4] = tested on: cAMP levels in the airways; test: cAMP extraction and quantification in trachea and lungs of treated mice; format: in vivo, BALB/C mice; settings: intra-tracheal, 1.5 μg/mouse, 30 minutes; vs PBS or P1 control peptide
# Protocol: Lungs and trachea were explanted from animals following euthanasia, pulverized in liquid nitrogen and used for cold extraction of cAMP with 6% trichloroacetic acid. Samples were sonicated for 10 seconds and centrifuged at 13000 rpm at 4° C. for 15 minutes. Supernatants were washed four times with five volumes of diethyl ether saturated with water and lyophilized. cAMP content was detected with an Amersham cAMP BioTrak Enzymeimmunoassay System (GE Healthcare Life Sciences, Pittsburgh, USA, product code: RPN225), according to the manufacturer's protocol.
# Wild-type BALB/C mice were injected by the intra-tracheal route with 1.5 μg of the Trojan peptide derived from PI3Kγ conjugated to fluorescein or vehicle, in a final volume of 70 μL of PBS. After 30 minutes, animals were anesthetized, the trachea and lungs were insufflated with PBS, extracted and frozen in OCT. Cryosections of 10 microns were obtained with a Leica CM1850 cryostat (Leica Microsystems GmbH, Wetzlar, Germany) and fluorescence was acquired with a Zeiss Observer-Z1, equipped with an Apotome module (Carl Zeiss, Oberkochen, Germany).
sequence,measurement,setting,value
RQIKIWFQNRRMKWKKGKATHRSPGQIHLVQRHPPSEESQAF (fusion peptide comprising SEQ ID No.1 and SEQ ID No.3) [Trojan peptide derived from PI3Kγ],airway hyperreactivity induced by methacholine (average lung resistance),[1],significantly attenuated
same,catalytic activity of PDE4D,[2],significantly reduced
same,catalytic activity of PDE4B,[3],significantly reduced
same,"cAMP levels in the trachea and in the lungs, higher than controls",[4],30%
